Where two headings read alike, the source gives them in different places.
Assays:
M4 muscarinic receptor = target: T1, M4 muscarinic receptor (Homo sapiens, UniProt P08173); test: Functional mobilization of intracellular calcium (FLIPR, Fluo-3), M4-CHO cells; type: cell-based; conditions: for Emax: 100% efficacy is the maximum response obtained with the Carbachol control, read-out: M4 Efficacy
T1 construct: expressed in transfected cells; host or cells: CHO cells (M4-CHO, under puromycin, zeocin and blasticidin selection)
T1 sequence (P08173 1-479): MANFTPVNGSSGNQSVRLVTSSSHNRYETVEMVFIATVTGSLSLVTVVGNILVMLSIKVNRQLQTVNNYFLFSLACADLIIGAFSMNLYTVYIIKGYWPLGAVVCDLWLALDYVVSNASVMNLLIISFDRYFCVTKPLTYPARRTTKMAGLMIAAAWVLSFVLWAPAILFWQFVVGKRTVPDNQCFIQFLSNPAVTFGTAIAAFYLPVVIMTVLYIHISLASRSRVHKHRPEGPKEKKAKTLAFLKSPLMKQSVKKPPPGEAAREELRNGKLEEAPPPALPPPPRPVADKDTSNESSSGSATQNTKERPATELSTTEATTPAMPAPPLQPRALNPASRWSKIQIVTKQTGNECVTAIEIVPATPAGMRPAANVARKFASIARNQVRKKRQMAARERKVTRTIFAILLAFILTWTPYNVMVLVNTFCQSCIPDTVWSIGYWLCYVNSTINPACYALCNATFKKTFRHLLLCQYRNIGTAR
In short: (§1)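 CHO lines stably carrying the muscarinic subtype, dye-loaded with Fluo-3 at 37° C for 60-90 min, receive test compound in 0.5% DMSO. Agonist effects are read directly; antagonist effects against carbachol at EC80 after 15 min pre-incubation.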

M1 muscarinic receptor = target: T2, M1 muscarinic receptor (Homo sapiens, UniProt P11229); test: Functional mobilization of intracellular calcium (FLIPR, Fluo-3), M1-CHO cells; type: cell-based; conditions: for Emax: 100% efficacy is the maximum response obtained with the Carbachol control, read-out: M1 Efficacy
T2 construct: expressed in transfected cells; host or cells: CHO cells (M1-CHO, under zeocin and G418 selection)
T2 sequence (P11229 1-460): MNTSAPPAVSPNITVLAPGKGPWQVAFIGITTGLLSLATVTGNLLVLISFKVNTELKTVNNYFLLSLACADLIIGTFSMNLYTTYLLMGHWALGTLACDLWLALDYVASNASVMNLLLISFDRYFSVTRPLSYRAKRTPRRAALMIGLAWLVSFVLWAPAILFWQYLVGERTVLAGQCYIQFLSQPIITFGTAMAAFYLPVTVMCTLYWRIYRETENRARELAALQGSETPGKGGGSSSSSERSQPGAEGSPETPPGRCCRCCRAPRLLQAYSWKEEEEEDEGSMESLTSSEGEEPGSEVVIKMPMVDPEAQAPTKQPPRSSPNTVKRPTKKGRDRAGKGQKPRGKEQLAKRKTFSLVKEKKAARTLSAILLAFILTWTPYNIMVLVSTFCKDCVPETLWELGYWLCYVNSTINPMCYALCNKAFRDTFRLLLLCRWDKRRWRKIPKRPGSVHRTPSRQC
In short: as §1

[1] = compound nos. 1-454, M4-CHO cells, calcium mobilization
[2] = compound nos. 1-454, M1-CHO cells, calcium mobilization

## CC(C)OC(=O)N1C2CCC1CC(N1CCC3(CC1)COc1ccc(F)cc13)C2 (stereo not drawn) [compound 320]
M4 muscarinic receptor; compound nos. 1-454
  Emax: < 55%
M4 muscarinic receptor; [1]
  M4 Activity: + (activity was measured to be greater than or equal to 4.0 μM)
M1 muscarinic receptor; compound nos. 1-454
  Emax: 65 to 85%
M1 muscarinic receptor; [2]
  M1 Activity: ++ (activity was measured to be between 0.7 μM and 3.0 μM)

## CC(=O)N1CC2(CCN(CC3CC4CCC3C4)CC2)c2cc(C)ccc21 (stereo not drawn) [compound 118]
M4 muscarinic receptor; compound nos. 1-454
  Emax: < 55%
M4 muscarinic receptor; [1]
  M4 Activity: + (activity was measured to be greater than or equal to 4.0 μM)
M1 muscarinic receptor; compound nos. 1-454
  Emax: 65 to 85%
M1 muscarinic receptor; [2]
  M1 Activity: +++ (activity was measured to be less than or equal to 0.7 μM)

## CN(C)C(=O)N1CC2(CCN(C3CCN(c4cnc5ccccc5n4)CC3)CC2)c2cc(F)ccc21 [compound 460]
M4 muscarinic receptor; compound nos. 455-509
  Emax: 25 to 100%
M4 muscarinic receptor; compounds 455-509
  M4 Activity: ++ (activity was measured to be between 2.0 μM and 5.0 μM)
M1 muscarinic receptor; compound nos. 455-509
  Emax: > 100%
M1 muscarinic receptor; compounds 455-509
  M1 Activity: +++ (activity was measured to be less than or equal to 2.0 μM)

## O=C1CC2(CCN(C[C@@H]3C[C@H]4C=C[C@H]3C4)CC2)c2ccccc21 [compound 238]
M4 muscarinic receptor; compound nos. 1-454
  Emax: < 55%
M4 muscarinic receptor; [1]
  M4 Activity: + (activity was measured to be greater than or equal to 4.0 μM)
M1 muscarinic receptor; compound nos. 1-454
  Emax: < 65%
M1 muscarinic receptor; [2]
  M1 Activity: + (activity was measured to be greater than or equal to 3.0 μM)

## COCCOC(=O)N1C2CCC1CC(N1CCC3(CC1)CN(C(=O)C1CC1)c1ccc(F)cc13)C2 (stereo not drawn) [compound 311]
M4 muscarinic receptor; compound nos. 1-454
  Emax: 55 to 70%
M4 muscarinic receptor; [1]
  M4 Activity: + (activity was measured to be greater than or equal to 4.0 μM)
M1 muscarinic receptor; compound nos. 1-454
  Emax: 65 to 85%
M1 muscarinic receptor; [2]
  M1 Activity: +++ (activity was measured to be less than or equal to 0.7 μM)

## CC(=O)N1CC2(CCN(CC3CCN(C(=O)O[C@@H]4CCOC4)CC3)CC2)c2cc(F)ccc21 [compound 14]
M4 muscarinic receptor; compound nos. 1-454
  Emax: > 70%
M4 muscarinic receptor; [1]
  M4 Activity: +++ (activity was measured to be less than or equal to 0.1 μM)
M1 muscarinic receptor; compound nos. 1-454
  Emax: 65 to 85%
M1 muscarinic receptor; [2]
  M1 Activity: +++ (activity was measured to be less than or equal to 0.7 μM)

## CCOC(=O)N(C)[C@H]1CC2(CCN(C[C@H]3C[C@H]4CC[C@H]3C4)CC2)c2ccccc21 [compound 347]
M4 muscarinic receptor; compound nos. 1-454
  Emax: > 70%
M4 muscarinic receptor; [1]
  M4 Activity: ++ (activity was measured to be between 0.1 μM and 4.0 μM)
M1 muscarinic receptor; compound nos. 1-454
  Emax: 65 to 85%
M1 muscarinic receptor; [2]
  M1 Activity: +++ (activity was measured to be less than or equal to 0.7 μM)

## COCCOC(=O)N1C2CCC1CC(N1CCC3(CC1)CN(C(=O)OC1CCC1)c1ccc(F)cc13)C2 (stereo not drawn) [compound 106]
M4 muscarinic receptor; compound nos. 1-454
  Emax: < 55%
M4 muscarinic receptor; [1]
  M4 Activity: ++ (activity was measured to be between 0.1 μM and 4.0 μM)
M1 muscarinic receptor; compound nos. 1-454
  Emax: 65 to 85%
M1 muscarinic receptor; [2]
  M1 Activity: +++ (activity was measured to be less than or equal to 0.7 μM)

## C=Cc1ccc2c(c1)C1(CCN(C3CCN(C(=O)OCC)CC3)CC1)CN2C(C)=O [compound 11]
M4 muscarinic receptor; compound nos. 1-454
  Emax: < 55%
M4 muscarinic receptor; [1]
  M4 Activity: + (activity was measured to be greater than or equal to 4.0 μM)
M1 muscarinic receptor; compound nos. 1-454
  Emax: < 65%
M1 muscarinic receptor; [2]
  M1 Activity: + (activity was measured to be greater than or equal to 3.0 μM)

## Fc1ccc2c(c1)C1(CCN([C@@H]3C[C@@H]4CC[C@H]3C4)CC1)CO2 [compound 175]
M4 muscarinic receptor; compound nos. 1-454
  Emax: 55 to 70%
M4 muscarinic receptor; [1]
  M4 Activity: ++ (activity was measured to be between 0.1 μM and 4.0 μM)
M1 muscarinic receptor; compound nos. 1-454
  Emax: 65 to 85%
M1 muscarinic receptor; [2]
  M1 Activity: +++ (activity was measured to be less than or equal to 0.7 μM)

## CCOC(=O)N1CCC(CN2CCC3(CC2)C[C@H](NC(C)=O)c2ccccc23)CC1 [compound 250]
M4 muscarinic receptor; compound nos. 1-454
  Emax: 55 to 70%
M4 muscarinic receptor; [1]
  M4 Activity: + (activity was measured to be greater than or equal to 4.0 μM)
M1 muscarinic receptor; compound nos. 1-454
  Emax: 65 to 85%
M1 muscarinic receptor; [2]
  M1 Activity: ++ (activity was measured to be between 0.7 μM and 3.0 μM)

## O=C(O[C@@H]1CCOC1)N1C2CCC1CC(N1CCC3(CCc4ccccc43)CC1)C2 (stereo partly drawn) [compound 43]
M4 muscarinic receptor; compound nos. 1-454
  Emax: > 70%
M4 muscarinic receptor; [1]
  M4 Activity: + (activity was measured to be greater than or equal to 4.0 μM)
M1 muscarinic receptor; compound nos. 1-454
  Emax: > 85%
M1 muscarinic receptor; [2]
  M1 Activity: +++ (activity was measured to be less than or equal to 0.7 μM)

## Cc1cncc(N2CCC(N3CCC4(CC3)CN(C(=O)N(C)C)c3ccccc34)CC2)n1 [compound 478]
M4 muscarinic receptor; compound nos. 455-509
  Emax: 25 to 100%
M4 muscarinic receptor; compounds 455-509
  M4 Activity: ++ (activity was measured to be between 2.0 μM and 5.0 μM)
M1 muscarinic receptor; compound nos. 455-509
  Emax: > 100%
M1 muscarinic receptor; compounds 455-509
  M1 Activity: +++ (activity was measured to be less than or equal to 2.0 μM)

## CCOC(=O)N1CCC(N2CCC3(CC2)CN(C(C)=O)c2ccc(Cl)cc23)CC1 [compound 141]
M4 muscarinic receptor; compound nos. 1-454
  Emax: > 70%
M4 muscarinic receptor; [1]
  M4 Activity: ++ (activity was measured to be between 0.1 μM and 4.0 μM)
M1 muscarinic receptor; compound nos. 1-454
  Emax: > 85%
M1 muscarinic receptor; [2]
  M1 Activity: +++ (activity was measured to be less than or equal to 0.7 μM)

## CCOC(=O)N1CCC(N2CCC3(CC2)CN(C(=O)OC)c2ccc(F)cc23)CC1 [compound 173]
M4 muscarinic receptor; compound nos. 1-454
  Emax: > 70%
M4 muscarinic receptor; [1]
  M4 Activity: ++ (activity was measured to be between 0.1 μM and 4.0 μM)
M1 muscarinic receptor; compound nos. 1-454
  Emax: 65 to 85%
M1 muscarinic receptor; [2]
  M1 Activity: +++ (activity was measured to be less than or equal to 0.7 μM)

## Cc1ccc2c(c1)C1(CCN(CC3CC4CCC3C4)CC1)CN2C(=O)OC(C)(C)C (stereo not drawn) [compound 382]
M4 muscarinic receptor; compound nos. 1-454
  M4 Activity: + (activity was measured to be greater than or equal to 4.0 μM)
  Emax: 55 to 70%
M1 muscarinic receptor; compound nos. 1-454
  M1 Activity: +++ (activity was measured to be less than or equal to 0.7 μM)
  Emax: 65 to 85%

## Cc1nsc(N2CCC(N3CCC4(CCN(C(=O)N(C)C)c5ccccc54)CC3)CC2)n1 [compound 474]
M4 muscarinic receptor; compound nos. 455-509
  Emax: 25 to 100%
M4 muscarinic receptor; compounds 455-509
  M4 Activity: ++ (activity was measured to be between 2.0 μM and 5.0 μM)
M1 muscarinic receptor; compound nos. 455-509
  Emax: > 100%
M1 muscarinic receptor; compounds 455-509
  M1 Activity: +++ (activity was measured to be less than or equal to 2.0 μM)

## CC(=O)N1CC2(CCN(C3CC4CCC(C3)N4C(=O)O[C@H]3CCOC3)CC2)c2cc(F)ccc21 (stereo partly drawn) [compound 47]
M4 muscarinic receptor; compound nos. 1-454
  Emax: 55 to 70%
M4 muscarinic receptor; [1]
  M4 Activity: ++ (activity was measured to be between 0.1 μM and 4.0 μM)
M1 muscarinic receptor; compound nos. 1-454
  Emax: 65 to 85%
M1 muscarinic receptor; [2]
  M1 Activity: +++ (activity was measured to be less than or equal to 0.7 μM)

## CC(=O)N1CC2(CCN(C3CCN(c4cncc(C)n4)CC3)CC2)c2ccccc21 [compound 470]
M4 muscarinic receptor; compound nos. 455-509
  Emax: 25 to 100%
M4 muscarinic receptor; compounds 455-509
  M4 Activity: ++ (activity was measured to be between 2.0 μM and 5.0 μM)
M1 muscarinic receptor; compound nos. 455-509
  Emax: > 100%
M1 muscarinic receptor; compounds 455-509
  M1 Activity: +++ (activity was measured to be less than or equal to 2.0 μM)

## CN(C)C(=O)N1CC2(CCN(C3CCN(c4cncnc4)CC3)CC2)c2cc(F)ccc21 [compound 446]
M4 muscarinic receptor; compound nos. 1-454
  M4 Activity: +++ (activity was measured to be less than or equal to 0.1 μM)
  Emax: 55 to 70%
M1 muscarinic receptor; compound nos. 1-454
  M1 Activity: ++ (activity was measured to be between 0.7 μM and 3.0 μM)
  Emax: 65 to 85%

## CCOC(=O)N1CCC(N2CCC3(CC2)CN(C(=O)c2ccc4c(c2)OCO4)c2ccc(F)cc23)CC1 [compound 401]
M4 muscarinic receptor; compound nos. 1-454
  M4 Activity: + (activity was measured to be greater than or equal to 4.0 μM)
  Emax: < 55%
M1 muscarinic receptor; compound nos. 1-454
  M1 Activity: +++ (activity was measured to be less than or equal to 0.7 μM)
  Emax: 65 to 85%

Reference: patent US7858635B2 (priority 2005, dated 2010)
